The target of one data set is T1, P4503A4 (Homo sapiens, UniProt P08684).
T1 construct: purchased Cypex, Dundee, Scotland, UK (through Tebu-Bio); host or cells: Escherichia coli (Bactosomes)
Briefly: Metabolism with human recombinant P4503A4. Type of data set: in vitro ADME. Conditions: 0.05 mM compound, 1 mg/mL P4503A4, 2 mM NADPH, 30 min. The protocol:
(§1) UT-RLMs (2 mg/mL) and P450-RLMs induced with Dex, 3MC, or PB and recombinant P4502C19 and P4503A4 (1 mg/mL) were assayed for activity toward tested UAs as follows. The proteins were incubated in a buffer containing 0.1 M HEPES (pH 7.4), 2 mM MgCl2 with 0.05 mM substrate in total volume 70 µL. Substrates were added also in buffer HEPES, pH 7.4. Reactions were started by the addition of NADPH (2 mM) and were incubated for specified time at 37 °C. The reactions were stopped by the addition of 8.75 µL of 1 M HCl, followed by centrifugation at 13,400 rpm for 10 min to pellet the denatured protein. The supernatant fractions were used for high-performance liquid chromatography (HPLC) analysis. Control reactions omitting substrate were run with each assay. All incubations were performed in two repetitions.

The target in the next data set is T2, P4502C19 (Homo sapiens, UniProt P33261).
T2 construct: purchased Cypex, Dundee, Scotland, UK (through Tebu-Bio); host or cells: Escherichia coli (Bactosomes)
T2 sequence (P33261 whole entry): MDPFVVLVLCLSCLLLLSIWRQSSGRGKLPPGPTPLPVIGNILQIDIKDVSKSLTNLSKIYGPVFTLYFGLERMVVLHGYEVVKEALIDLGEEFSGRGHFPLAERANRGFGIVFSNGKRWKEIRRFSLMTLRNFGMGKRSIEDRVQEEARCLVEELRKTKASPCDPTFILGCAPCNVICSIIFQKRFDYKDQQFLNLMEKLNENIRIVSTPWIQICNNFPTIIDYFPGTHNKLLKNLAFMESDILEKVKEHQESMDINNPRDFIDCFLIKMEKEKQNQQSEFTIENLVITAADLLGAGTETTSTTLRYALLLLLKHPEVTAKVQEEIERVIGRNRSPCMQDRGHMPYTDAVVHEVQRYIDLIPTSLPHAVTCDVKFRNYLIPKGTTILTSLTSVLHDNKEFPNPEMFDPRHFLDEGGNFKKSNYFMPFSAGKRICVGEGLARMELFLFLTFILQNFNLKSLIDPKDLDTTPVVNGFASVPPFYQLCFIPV
Briefly: Metabolism with human recombinant P4502C19. The note with it: 0.05 mM compound, 1 mg/mL P4502C19, 2 mM NADPH, 30 min. Type of data set: in vitro ADME. The method, then:
as §1

A further data set has as its target T3, UGT2B7 (Homo sapiens, UniProt P16662).
T3 construct: purchased Corning, NY, USA (through DIAG-MED, Poland); host or cells: baculovirus-insect cells (Supersomes)
T3 sequence (P16662 24-529): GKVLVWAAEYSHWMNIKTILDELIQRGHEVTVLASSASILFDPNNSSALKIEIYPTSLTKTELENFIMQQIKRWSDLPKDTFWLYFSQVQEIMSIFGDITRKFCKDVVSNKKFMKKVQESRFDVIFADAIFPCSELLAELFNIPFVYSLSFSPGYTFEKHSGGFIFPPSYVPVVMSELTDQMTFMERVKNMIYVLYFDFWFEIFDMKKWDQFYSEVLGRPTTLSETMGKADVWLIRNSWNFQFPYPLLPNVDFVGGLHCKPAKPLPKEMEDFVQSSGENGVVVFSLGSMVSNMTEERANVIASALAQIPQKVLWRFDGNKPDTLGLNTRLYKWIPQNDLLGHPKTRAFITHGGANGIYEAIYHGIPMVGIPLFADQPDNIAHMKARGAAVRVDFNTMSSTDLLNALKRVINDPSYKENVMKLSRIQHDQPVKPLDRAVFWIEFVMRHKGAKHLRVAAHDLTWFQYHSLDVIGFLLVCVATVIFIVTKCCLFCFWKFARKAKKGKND
Briefly: Glucuronidation with recombinant UGT2B7. The data set is classed as in vitro ADME. The arrangement: key: −: the lack of UGT activity; +: the significant UGT activity. The note with it: 0.05 mM compound, 1 mg/mL UGT, 5 mM UDPGA. The method, then:
(§2) Recombinant UGT isoform protein (1 mg/mL) was assayed for activity toward tested UAs as follows. The proteins were incubated in a buffer containing 0.1 M HEPES (pH 7.4), 8 mM MgCl2 and alamethicin (25 μg/mL) with either 0.05 mM substrate in total volume 70 µL (alamethicin was added to permeabilize the membrane). Substrates were also in buffer HEPES, pH 7.4. Reactions were started by the addition of UDPGA (5 mM) and were incubated for specified time at 37 °C. The reactions were stopped by the addition of 8.75 µL of 1 M HCl, followed by centrifugation at 13400 rpm for 10 min to pellet the denatured protein. The supernatant fractions were used for HPLC analysis. Control reactions omitting substrate were run with each assay. All incubations were performed in two repetitions.

The target of another data set is T4, UGT 1A9 (Homo sapiens, UniProt O60656).
T4 construct: His tag; purchased Corning, NY, USA (through DIAG-MED, Poland); host or cells: baculovirus-insect cells (Supersomes); Results say Sf9 cells
T4 sequence (O60656 26-530): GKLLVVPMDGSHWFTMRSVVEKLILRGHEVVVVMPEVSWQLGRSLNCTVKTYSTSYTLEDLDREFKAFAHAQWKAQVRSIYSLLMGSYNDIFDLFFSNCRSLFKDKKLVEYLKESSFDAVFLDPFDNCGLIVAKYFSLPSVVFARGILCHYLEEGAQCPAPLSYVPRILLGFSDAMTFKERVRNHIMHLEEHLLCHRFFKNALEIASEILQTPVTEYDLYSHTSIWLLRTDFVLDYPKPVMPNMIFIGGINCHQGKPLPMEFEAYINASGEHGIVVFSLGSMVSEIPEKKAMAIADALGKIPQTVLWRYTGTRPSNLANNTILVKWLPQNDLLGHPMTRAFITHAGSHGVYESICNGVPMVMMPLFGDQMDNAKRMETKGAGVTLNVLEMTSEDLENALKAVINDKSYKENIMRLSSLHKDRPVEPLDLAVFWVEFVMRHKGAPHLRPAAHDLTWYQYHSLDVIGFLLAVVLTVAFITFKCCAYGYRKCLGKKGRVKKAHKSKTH
Briefly: Glucuronidation with recombinant UGT1A9. The data set is classed as in vitro ADME. More on the design: key: −: the lack of UGT activity; +: the significant UGT activity. The note with it: 0.05 mM compound, 1 mg/mL UGT, 5 mM UDPGA. The protocol:
as §2

A short description of data set [1]: pKa determination by spectrophotometric titration. Conditions: 23 aqueous buffer solutions, pH 1.5-11, pH 1.5, 0.02 mM compound, pH 1.5-11, UV-vis, principal component analysis. Type of data set: physicochemical. The protocol:
The concentration of the compounds in the working solutions was 0.02 mM, pH was changed in the range 1.5–11 at 23 buffer solutions: 1.5–3.5 (interval 0.5 unit—HCl solution), 4.0–5.5 (interval 0.5 unit—acetic buffer), 6.1–7.5 (interval 0.2 unit—PIPES (2-[4-(2-sulphoethyl)piperazine-1-ethanesulphonic acid) buffer), 7.7–8.1 (interval 0.2 unit—HEPES (4-(2-hydroxyethyl)piperazine-1-ethanesulphonic acid) buffer) and 9–11 (interval 1 unit—borate buffer).
PKa values for tested UAs were determined by spectrophotometric titration using a Cary 300 Bio instrument. The UV-vis spectra obtained for all solutions in the examined pH range were subjected to the chemometric technique principal component analysis. This procedure makes it possible to determine the number of spectral forms present in the tested samples and to estimate the mole fractions for each of them. To determine pKa values the relationships between the mole fractions of individual spectral forms and the pH of the samples were used. The first approximation of pKa values have been assigned to the values of pH corresponding to the central points of each titration wave. Numerical optimization by the adjustment of pKa values to the obtained molar fractions allowed to refine these values and the cross-validation procedure let to determine their standard deviations.

Read-outs that look alike come from different tables or passages of the source.

T1 sequence (P08684 whole entry): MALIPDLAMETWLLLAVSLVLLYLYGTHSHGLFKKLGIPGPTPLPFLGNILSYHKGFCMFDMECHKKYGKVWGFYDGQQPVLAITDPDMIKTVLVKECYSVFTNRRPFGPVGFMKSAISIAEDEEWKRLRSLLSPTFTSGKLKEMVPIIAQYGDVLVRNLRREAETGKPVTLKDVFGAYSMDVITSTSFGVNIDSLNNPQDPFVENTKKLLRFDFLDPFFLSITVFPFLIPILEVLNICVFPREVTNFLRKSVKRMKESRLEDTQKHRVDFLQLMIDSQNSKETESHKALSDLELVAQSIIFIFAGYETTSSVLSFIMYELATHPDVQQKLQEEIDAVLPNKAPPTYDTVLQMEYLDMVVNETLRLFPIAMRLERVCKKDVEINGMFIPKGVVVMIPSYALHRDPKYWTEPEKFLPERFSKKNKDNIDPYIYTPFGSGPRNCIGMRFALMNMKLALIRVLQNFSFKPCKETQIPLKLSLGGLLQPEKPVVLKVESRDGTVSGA

`Cc1ccc([N+](=O)[O-])c2c(NCCCN(C)CCCNc3ccc4ncn5c6ccccc6c(=O)c3c45)c3ccccc3nc12` [C-2053]: the figures for the substrate transformed result at P4503A4 and on P4502C19 were “approximately 77%” and about 64%, respectively. In addition, at UGT2B7, the “Glucuronidation potency UGT 2B7” value was “−”. Moreover, the “Glucuronidation potency UGT 1A9” value at UGT 1A9 is recorded as “−”. The pKa in data set [1] (read-out: pKa 1) was 2.19; in data set [1] (read-out: pKa 2), 6.19; in data set [1] (read-out: pKa 3), 7.49.
As for `Cc1ccc([N+](=O)[O-])c2c(NCCCN(C)CCCNc3ccc4ncn5c6ccc(O)cc6c(=O)c3c45)c3ccccc3nc12` [C-2045], the substrate transformed was found to be 30% on P4503A4 and 11% at P4502C19. Also, the “Glucuronidation potency UGT 2B7” value at UGT2B7 is on record as “−”. For the same compound, the “Glucuronidation potency UGT 1A9” value at UGT 1A9 is reported as “+”. For the same compound, the pKa in data set [1] (read-out: pKa 1) was 2.33; in data set [1] (read-out: pKa 2), 6.37; in data set [1] (read-out: pKa 3), 7.5.
`CN(CCCNc1c2ccccc2nc2cccc([N+](=O)[O-])c12)CCCNc1ccc2ncn3c4ccccc4c(=O)c1c23` [C-2028]: the substrate transformed is listed as 72% on P4503A4 and 59% at P4502C19. Also, the “Glucuronidation potency UGT 2B7” value on UGT2B7 was “−”. Moreover, the “Glucuronidation potency UGT 1A9” value at UGT 1A9 is recorded as “−”. Further, the pKa in data set [1] (read-out: pKa 1) is 2.22; in data set [1] (read-out: pKa 2), 6.01; in data set [1] (read-out: pKa 3), 7.41.
